Measured values from patent US7449202B1, “Compositions and methods for prostate and kidney health and disorders, an herbal preparation” (Integrated Chinese Medicine Holdings, Ltd., priority 2003, dated 2008).

Experiment: case report: enlarged prostate with frequent urination
Format: in vivo, human
Settings: person, prescribed for enlarged prostate
Description: The 9-herb composition and Incontinence. Person diagnosed with having an enlarged prostate suffered from frequent-urination problems including increased daily frequency and reduced volume. They had the urge to urinate every two hours and the amount was only a few drops. Their symptoms were attributed to old age. […] After a period of time on this regimen, their urinary frequency decreased. The person reports that they only go to the bathroom every four hours instead of every two hours during the day. They are able to urinate what they consider a normal amount of urine in a steady stream as opposed to the dribbling they experienced prior to taking the 9-herb composition. The biggest benefit they experienced, however, is sleeping through the night without having to get up and go to the bathroom. Because they are sleeping better, they have more energy throughout the day.

CC(C)(C)NC(=O)[C@H]1CC[C@H]2[C@@H]3CC[C@H]4NC(=O)C=C[C@]4(C)[C@H]3CC[C@]12C [PROSCAR]
urination problem: did not alleviate the urination problem
